Common to all, as to experiment: NCI-60 cell line screen, 48 h
In experiment [1] the test system is UACC-62 melanoma.
Experiment [2] has as its system KM12 colon.
For experiment [3], the system named is ACHN renal.
The subject of experiment [4] is SK-MEL-5 melanoma.
Experiment [5] deals with BT-549 breast.
The test system of experiment [6] is RPMI-8226 leukemia.
For experiment [7], the system named is SF-539 CNS.
The test system of experiment [8] is CCRF-CEM leukemia.
For experiment [9], the system named is IGROV1 ovarian.
Experiment [10] concerns HCT-116 colon.
In experiment [11] the test system is LOX IMVI melanoma.
Experiment [12] concerns OVCAR-5 ovarian.
Experiment [13] has as its system NCI-H460 lung.
For experiment [14], the system named is COLO 205 colon.
In experiment [15] the test system is MALME-3M melanoma.
For experiment [16], the system named is OVCAR-3 ovarian.
The test system of experiment [17] is SK-OV-3 ovarian.
For experiment [18], the system named is T-47D breast.
The subject of experiment [19] is U251 CNS.
Experiment [20] concerns HOP-62 NSCLC.

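Where inhibition never reached the appropriate level, the endpoint shown equals the highest concentration tested. Otherwise, values were interpolated linearly from a five-concentration, 48-hour dose response in 96-well plates. TGI denotes the concentration required for complete inhibition of growth.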

For `OC1(c2ccc3ccccc3c2)c2ccc3ccccc3c2C2=NCCN21` (stereo not given), the TGI in experiment [1], in experiment [2], in experiment [3], in experiment [4], in experiment [5] and in experiment [6] was above 100 µM each time. Moreover, the TGI in [7], in experiment [8], in experiment [9], in [10], in [11] and in experiment [12] was above 100 µM each time. In addition, the TGI in experiment [13], in experiment [14], in [15], in experiment [16], in experiment [17] and in experiment [18] was above 100 µM throughout. Further, the TGI was above 100 µM in [19] and 47.3 µM in [20].

For `NC(N)=NS(=O)(=O)c1ccc(NNc2c3ccccc3nc3c(C(=O)Nc4ccc(S(N)(=O)=O)cc4)cccc23)cc1`, the TGI in [1] was above 100 µM; in experiment [2], above 100 µM; in [3], above 100 µM; in [4], above 100 µM; in [5], 70.2 µM; in experiment [6] it was above 100 µM. The TGI is above 100 µM in [7]; 88.7 µM in experiment [8]; above 100 µM in [9]; above 100 µM in experiment [10]; 29.4 µM in [11]; above 100 µM in experiment [12]. Further, the TGI in experiment [13], in [14], in experiment [15], in experiment [16], in [17] and in experiment [18] was above 100 µM each time. Further, the TGI was 83.9 µM in [19] and above 100 µM in [20].

On to `CN(C)/C=N/S(=O)(=O)c1nn2c(C=O)c(-c3ccc([N+](=O)[O-])cc3)nc2s1`, for which the TGI was 23 µM in experiment [1]; 42.3 µM in experiment [2]; 10.5 µM in experiment [3]; 17.4 µM in experiment [4]; 25.5 µM in [5]; above 60.9 µM in experiment [6]. Further, the TGI in experiment [7] is 71.4 µM; in experiment [8] it was 19.2 µM; in experiment [9], 17.6 µM; in experiment [10], 6.51 µM; in experiment [11], 27 µM; in experiment [12], above 79.6 µM. Besides, the TGI is above 85.9 µM in experiment [13]; above 34.3 µM in experiment [14]; 8.72 µM in [15]; 18 µM in experiment [16]; above 100 µM in experiment [17]; above 45.4 µM in [18]. Also, the figures for the TGI in [19] and in [20] were 41.6 µM and above 81.9 µM, respectively.

As for `CCOC(=O)[C@H]1C[C@]23CN(C(=O)OC(C)(C)C)CC[C@H]2CCC2(SCCCS2)[C@@H]3N1C`, the TGI in experiment [1] is above 100 µM; in experiment [2], above 100 µM; in experiment [3], above 100 µM; in experiment [4] it was 37.4 µM; in experiment [5], above 100 µM; in experiment [6], 54.4 µM. Besides, the TGI in experiment [7], in experiment [8], in [9], in [10], in experiment [11] and in experiment [12] was above 100 µM throughout. The TGI in experiment [13] was above 100 µM; in experiment [14] it was above 100 µM; in [15] it was 74.6 µM; in experiment [16] it was above 100 µM; in experiment [17] it was above 100 µM; in experiment [18], above 100 µM. Also, the TGI in experiment [19] and in experiment [20] was above 100 µM throughout.

`CCOc1ccc2c(c1)NC(=O)C(C1OC(c3ccccc3)=CC1=O)S2` (stereo not given): the TGI was 35.1 µM in experiment [1]; 66.3 µM in [2]; above 100 µM in [3]; 39.2 µM in experiment [4]; 65.9 µM in experiment [5]; 30.5 µM in experiment [6]. In addition, the TGI in experiment [7] came out at 45 µM; in [8] it was 10.9 µM; in experiment [9], 53.2 µM; in [10], 88.2 µM; in [11], 67 µM; in experiment [12] it was 36.5 µM. Moreover, the TGI in [13] turned out to be 39 µM; in experiment [14], 28.1 µM; in [15], 44.5 µM; in experiment [16], 50.1 µM; in [17], 52.8 µM; in experiment [18] it was 36.3 µM. Further, the TGI in experiment [19] is 49.2 µM; in experiment [20], above 100 µM.

As for `CC1(C)S[C@@H]2[C@H](NC(=O)/C=C/c3ccccc3)C(=O)N2[C@H]1C(=O)O`, the TGI in experiment [1], in experiment [2], in experiment [3], in [4], in [5] and in experiment [6] was above 100 µM throughout. For the same compound, the TGI in experiment [7], in experiment [8], in experiment [9], in experiment [10], in experiment [11] and in experiment [12] was above 100 µM each time. For the same compound, the TGI in experiment [13], in experiment [14], in [15], in [16], in experiment [17] and in experiment [18] was above 100 µM each time. Besides, the TGI in [19] and in experiment [20] was above 100 µM each time.

For the origin of these results see PubChem BioAssay (NCI).
